Tests used:
C1s = target: T1, C1s (Homo sapiens, UniProt P09871); test: Peptidase (amidolytic) activity of purified C1s, chromogenic substrate, 96-well plate, OD 405 nm; assay type: biochemical; details: Table 2; C1s 100 nM, substrate S2288; 60 min at 4° C. with LBTI 1 mg/ml, SBTI I mg/ml, aprotinin 0.075 mg/ml, benzamidine 50 mM or Futhan 0.1 mg/ml; % of total activity without inhibitor; read-out: % Residual activity, C1s
T1 construct: purchased Advanced Research Technologies (San Diego, Calif.)
T1 sequence (P09871 438-688 limits assumed): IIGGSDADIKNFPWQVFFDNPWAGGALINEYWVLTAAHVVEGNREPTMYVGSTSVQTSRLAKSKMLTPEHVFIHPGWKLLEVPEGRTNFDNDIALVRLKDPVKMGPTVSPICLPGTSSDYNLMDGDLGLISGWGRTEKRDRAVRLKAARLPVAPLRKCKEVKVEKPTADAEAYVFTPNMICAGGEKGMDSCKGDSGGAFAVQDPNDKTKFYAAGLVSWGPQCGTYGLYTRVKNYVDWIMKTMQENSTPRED
T1 sequence (P09871 16-437 partner limits assumed): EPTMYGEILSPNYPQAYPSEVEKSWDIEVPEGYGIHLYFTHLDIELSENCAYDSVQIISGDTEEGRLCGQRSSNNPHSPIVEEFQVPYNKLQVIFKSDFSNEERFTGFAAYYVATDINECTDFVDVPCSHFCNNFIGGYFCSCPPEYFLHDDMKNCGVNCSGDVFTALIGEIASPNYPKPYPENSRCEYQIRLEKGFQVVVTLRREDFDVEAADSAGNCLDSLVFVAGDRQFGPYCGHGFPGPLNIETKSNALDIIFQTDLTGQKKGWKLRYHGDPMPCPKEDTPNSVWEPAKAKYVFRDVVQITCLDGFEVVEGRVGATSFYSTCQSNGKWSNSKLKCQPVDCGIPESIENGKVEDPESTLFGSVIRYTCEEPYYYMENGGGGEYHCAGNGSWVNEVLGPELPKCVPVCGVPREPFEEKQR
Method: (§1) The peptidase activity in plasma samples or of the purified enzymes were routinely determined at 37° C. in a 96-well plate. Each well contained 0.5 mM substrate in 100 μl of Tris-buffered saline (TBS)-EDTA buffer (50 mM Tris/150 mM NaCl/10 mM EDTA, pH 7.8) and the reaction was monitored using a microplate reader (Titertek Multiscan, Labsystems, Needham Heights, Mass.).
(§2) The enzymes C1s (100 nM), plasm in (100 nM), thrombin (100 nM), plasma kallikrein (20 nM), β-FXIIa (100 nM), trypsin (16 nM) or LTR EDTA plasma samples were incubated for 60 min at 4° C. with TBS-EDTA buffer containing either LBTI (1 mg/ml), SBTI (I mg/ml), aprotinin (0.075 mg/ml), benzamidine (50 mM), or Futhan (0.1 mg/ml), before mixing with the substrate. EDTA plasma samples from LTR were diluted 10 or 20-fold with TBS-EDTA. The chromogenic substrate AGLTR-pNA was used for all enzymes and LTR samples except C1s where the substrate S2288 was used. Based on the initial rate of increase in OD at 405 nm, the residual free enzyme level was calculated and expressed as a percentage of total activity without inhibitor added.
(§3) Ten-fold diluted normal EDTA plasma was added to each enzyme. The enzymes C1s (100 nM), plasmin (100 nM), thrombin (100 nM), plasma kallikrein (20 nM), β-FXIIa (100 nM), trypsin (16 nM) or LTR EDTA plasma samples were incubated for 60 min at 4° C. with TBS-EDTA buffer containing either C1INH (40 μg/ml), bdellin (50 μg/ml), hirudin (50 U/ml), PPACK 11(10 μM), or CTI (100 μg/ml), before adding the substrate. LTR samples were 10 or 20-fold diluted with TBS-EDTA. The chromogenic substrate AGLTR-pNA was used for all enzymes and LTP samples except C1s where the substrate S2288 was used. Based on the initial rate of increase in OD at 405 nm, the residual free enzyme was calculated and expressed as a percentage of total activity determined without inhibitor added.

plasmin = target: T2, plasmin (Homo sapiens, UniProt P00747); test: Peptidase (amidolytic) activity of purified plasmin, chromogenic substrate, OD 405 nm; assay type: biochemical; details: Table 2; plasmin 100 nM, substrate AGLTR-pNA; 60 min at 4° C. with LBTI 1 mg/ml, SBTI I mg/ml, aprotinin 0.075 mg/ml, benzamidine 50 mM or Futhan 0.1 mg/ml; read-out: % Residual activity, Plasmin
T2 construct: purchased Calbiochem-Novabiochem Corp (La Jolla, Calif.)
Method: as §1, §2, §3

thrombin = target: T3, thrombin (Homo sapiens, UniProt P00734); test: Peptidase (amidolytic) activity of purified thrombin, chromogenic substrate, OD 405 nm; assay type: biochemical; details: Table 2; thrombin 100 nM, substrate AGLTR-pNA; 60 min at 4° C. with LBTI 1 mg/ml, SBTI I mg/ml, aprotinin 0.075 mg/ml, benzamidine 50 mM or Futhan 0.1 mg/ml; read-out: % Residual activity, Thrombin
T3 construct: purchased Calbiochem-Novabiochem Corp (La Jolla, Calif.)

plasma kallikrein = target: T4, plasma kallikrein (Homo sapiens, UniProt P03952); test: Peptidase (amidolytic) activity of purified plasma kallikrein, chromogenic substrate, OD 405 nm; assay type: biochemical; details: Table 2; plasma kallikrein 20 nM, substrate AGLTR-pNA; 60 min at 4° C. with LBTI 1 mg/ml, SBTI I mg/ml, aprotinin 0.075 mg/ml, benzamidine 50 mM or Futhan 0.1 mg/ml; read-out: % Residual activity, Plasma Kallikrein
T4 construct: The light chain of kallikrein contains the enzymatic domain; purchased Calbiochem-Novabiochem Corp (La Jolla, Calif.)
Method: as §1
(§4) […] EDTA plasma samples from LTR were diluted 10 or 20-fold with TBS-EDTA. The chromogenic substrate AGLTR-pNA was used for all enzymes and LTR samples except C1s where the substrate S2288 was used. Based on the initial rate of increase in OD at 405 nm, the residual free enzyme level was calculated and expressed as a percentage of total activity without inhibitor added.
(§5) Ten-fold diluted normal EDTA plasma was added to each enzyme. […] LTR samples were 10 or 20-fold diluted with TBS-EDTA. The chromogenic substrate AGLTR-pNA was used for all enzymes and LTP samples except C1s where the substrate S2288 was used. Based on the initial rate of increase in OD at 405 nm, the residual free enzyme was calculated and expressed as a percentage of total activity determined without inhibitor added.

β-Factor XIIa (β-FXIIa) = target: T5, β-Factor XIIa (β-FXIIa) (Homo sapiens, UniProt P00748); test: Peptidase (amidolytic) activity of purified β-FXIIa, chromogenic substrate, OD 405 nm; assay type: biochemical; details: Table 2; β-FXIIa 100 nM, substrate AGLTR-pNA; 60 min at 4° C. with LBTI 1 mg/ml, SBTI I mg/ml, aprotinin 0.075 mg/ml, benzamidine 50 mM or Futhan 0.1 mg/ml; read-out: % Residual activity, β-FXIIa
T5 construct: β-Factor XIIa (β-FXIIa) was kindly provided by Dr. Mary J. Heeb; gift of Dr. Mary J. Heeb, The Scripps Research Institute
Method: as §1, §4, §5

trypsin = test: Peptidase (amidolytic) activity of purified trypsin, chromogenic substrate, OD 405 nm; assay type: biochemical; details: Table 2; trypsin 16 nM, substrate AGLTR-pNA; 60 min at 4° C. with LBTI 1 mg/ml, SBTI I mg/ml, aprotinin 0.075 mg/ml, benzamidine 50 mM or Futhan 0.1 mg/ml
Method: as §1, §2

[1] = test system: proteinase(s) in EDTA plasma from LTR (kallikrein-like peptidase); test: Peptidase activity in EDTA plasma from liver transplant recipients (LTR), chromogenic substrate, OD 405 nm; assay type: biochemical, human; details: Table 2, substrate AGLTR-pNA, 60 min at 4° C. with LBTI 1 mg/ml, SBTI I mg/ml, aprotinin 0.075 mg/ml, benzamidine 50 mM or Futhan 0.1 mg/ml
Method: Blood samples were drawn into 5 ml EDTA tubes (Venoject; Terumo Corp., Elkton, Md.). The plasma was collected immediately by centrifugation at 2,000×g for 15 min at 4° C. The plasma samples were either processed immediately for analysis or stored at −70° C. Frozen samples were thawed at 4° C. prior to analysis.
as §1, §2, §3

[2] = test system: all of the enzymes examined; test: General serine proteinase inhibitors on selected proteinases (summary over the enzymes); assay type: biochemical; details: Table 2; benzamidine 50 mM, Futhan 0.1 mg/ml
Method: as §1, §2

[3] = test system: complement (three known pathways); details: defined levels of Futhan in combination with EDTA; cited from earlier work

T5 sequence (P00748 373-615 limits assumed, other chains not shown): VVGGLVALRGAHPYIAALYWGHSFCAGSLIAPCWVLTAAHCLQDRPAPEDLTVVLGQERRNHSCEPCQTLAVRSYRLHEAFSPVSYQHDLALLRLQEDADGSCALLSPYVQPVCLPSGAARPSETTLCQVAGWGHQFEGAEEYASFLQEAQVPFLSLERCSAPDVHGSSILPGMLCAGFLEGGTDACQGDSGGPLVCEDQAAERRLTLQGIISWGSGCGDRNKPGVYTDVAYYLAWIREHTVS
T4 sequence (P03952 391-638 limits assumed): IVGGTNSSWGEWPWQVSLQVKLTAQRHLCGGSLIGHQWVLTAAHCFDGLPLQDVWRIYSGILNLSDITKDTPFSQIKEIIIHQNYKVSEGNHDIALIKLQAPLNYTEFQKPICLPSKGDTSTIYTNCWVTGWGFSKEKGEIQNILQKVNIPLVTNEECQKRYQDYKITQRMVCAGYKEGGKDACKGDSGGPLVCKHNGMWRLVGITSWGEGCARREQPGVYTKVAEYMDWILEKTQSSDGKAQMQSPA
T4 sequence (P03952 20-390 partner limits assumed): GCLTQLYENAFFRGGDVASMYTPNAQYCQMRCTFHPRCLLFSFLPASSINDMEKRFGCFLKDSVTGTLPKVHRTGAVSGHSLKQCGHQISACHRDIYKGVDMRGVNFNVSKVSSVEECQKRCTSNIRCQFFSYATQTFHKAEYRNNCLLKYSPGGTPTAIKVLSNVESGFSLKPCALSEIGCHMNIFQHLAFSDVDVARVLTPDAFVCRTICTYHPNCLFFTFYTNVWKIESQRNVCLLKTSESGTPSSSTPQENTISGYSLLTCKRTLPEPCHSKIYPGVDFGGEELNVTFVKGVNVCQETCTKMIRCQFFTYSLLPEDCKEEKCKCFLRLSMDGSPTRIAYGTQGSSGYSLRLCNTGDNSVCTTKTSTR
T2 sequence (P00747 581-810 limits assumed, species assumed): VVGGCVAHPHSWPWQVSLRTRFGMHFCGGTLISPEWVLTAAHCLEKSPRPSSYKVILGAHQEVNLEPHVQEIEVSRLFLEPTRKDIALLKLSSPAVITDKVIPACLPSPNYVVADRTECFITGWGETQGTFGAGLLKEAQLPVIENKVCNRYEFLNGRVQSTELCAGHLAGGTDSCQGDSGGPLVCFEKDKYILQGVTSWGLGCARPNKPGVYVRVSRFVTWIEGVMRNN
T2 sequence (P00747 97-580 partner limits assumed, species assumed): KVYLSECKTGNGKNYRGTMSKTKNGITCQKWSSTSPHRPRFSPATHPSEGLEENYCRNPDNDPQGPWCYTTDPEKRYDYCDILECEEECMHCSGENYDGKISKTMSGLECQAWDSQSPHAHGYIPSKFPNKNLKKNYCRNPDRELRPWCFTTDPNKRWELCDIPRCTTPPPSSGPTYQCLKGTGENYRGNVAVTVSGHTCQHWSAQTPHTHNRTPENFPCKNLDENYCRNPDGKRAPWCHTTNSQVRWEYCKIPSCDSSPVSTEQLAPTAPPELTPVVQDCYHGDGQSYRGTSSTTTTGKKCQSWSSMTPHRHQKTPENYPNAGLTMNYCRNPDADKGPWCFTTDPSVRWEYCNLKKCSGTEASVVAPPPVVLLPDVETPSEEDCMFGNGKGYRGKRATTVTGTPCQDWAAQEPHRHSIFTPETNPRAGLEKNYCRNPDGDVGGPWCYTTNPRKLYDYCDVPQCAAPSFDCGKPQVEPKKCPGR

N=C(N)c1ccc2cc(OC(=O)c3ccc(N=C(N)N)cc3)ccc2c1 [Futhan, nafamostat mesilate]
remaining activity at 100 µg/mL (C1s): 4.6% | remaining activity at 100 µg/mL (plasmin): -1.5% | remaining activity at 100 µg/mL (thrombin): 0.8% | remaining activity at 100 µg/mL (plasma kallikrein): 1.1% | remaining activity at 100 µg/mL (β-Factor XIIa (β-FXIIa)): 3.8% | % Residual activity, Trypsin (trypsin): −0.5% | % Residual activity, LTR 1 ([1]; LTR 1 EDTA plasma diluted 10 or 20-fold): −0.7% | % Residual activity, LTR 2 ([1]; LTR 2 EDTA plasma diluted 10 or 20-fold): 0.2% | % Residual activity, LTR 3 ([1]; LTR 3 EDTA plasma diluted 10 or 20-fold): −1.1% | Inhibition of all of the enzymes examined, in words [2]: very efficient inhibitors for all of the enzymes examined | Prevention of in vitro activation of complement in plasma samples, in words [3]: can prevent the in vitro activation of complement by any of the three known pathways
